Experimental findings from ChEMBL document CHEMBL1141507, “Entry into a new class of protein kinase inhibitors by pseudo ring design” (Bioorg Med Chem Lett, 2008) are described below.

The target of test [1] is Serine/threonine-protein kinase B-raf (Homo sapiens, UniProt P15056, V600E). In words: Inhibition of bRaf V599E mutant.
Test [2] has as its target Vascular endothelial growth factor receptor 2 (Homo sapiens, UniProt P35968). In words: Inhibition of KDR.
Test [3] has as its target Tyrosine-protein kinase ABL1 (Homo sapiens, UniProt P00519).
Test [4] addresses Insulin-like growth factor 1 receptor (Homo sapiens, UniProt P08069). In words: Inhibition of IGF1R.
Another test deals with Angiopoietin-1 receptor (Homo sapiens, UniProt Q02763). Nature of the test: Inhibition of Tie2.
Test [5] has as its target Fibroblast growth factor receptor 1 (Homo sapiens, UniProt P11362). In words: Inhibition of FGFR1.
In test [6] the target is RAC-alpha serine/threonine-protein kinase (Homo sapiens, UniProt P31749). In words: Inhibition of PKB.
For test [7], the target named is Hepatocyte growth factor receptor (Homo sapiens, UniProt P08581). Nature of the test: Inhibition of cMet.
A short description of test [8]: Inhibition of PKA.
Test [9] addresses T1, Receptor-type tyrosine-protein kinase FLT3 (Homo sapiens, UniProt P36888).
T1 sequence (P36888 whole entry): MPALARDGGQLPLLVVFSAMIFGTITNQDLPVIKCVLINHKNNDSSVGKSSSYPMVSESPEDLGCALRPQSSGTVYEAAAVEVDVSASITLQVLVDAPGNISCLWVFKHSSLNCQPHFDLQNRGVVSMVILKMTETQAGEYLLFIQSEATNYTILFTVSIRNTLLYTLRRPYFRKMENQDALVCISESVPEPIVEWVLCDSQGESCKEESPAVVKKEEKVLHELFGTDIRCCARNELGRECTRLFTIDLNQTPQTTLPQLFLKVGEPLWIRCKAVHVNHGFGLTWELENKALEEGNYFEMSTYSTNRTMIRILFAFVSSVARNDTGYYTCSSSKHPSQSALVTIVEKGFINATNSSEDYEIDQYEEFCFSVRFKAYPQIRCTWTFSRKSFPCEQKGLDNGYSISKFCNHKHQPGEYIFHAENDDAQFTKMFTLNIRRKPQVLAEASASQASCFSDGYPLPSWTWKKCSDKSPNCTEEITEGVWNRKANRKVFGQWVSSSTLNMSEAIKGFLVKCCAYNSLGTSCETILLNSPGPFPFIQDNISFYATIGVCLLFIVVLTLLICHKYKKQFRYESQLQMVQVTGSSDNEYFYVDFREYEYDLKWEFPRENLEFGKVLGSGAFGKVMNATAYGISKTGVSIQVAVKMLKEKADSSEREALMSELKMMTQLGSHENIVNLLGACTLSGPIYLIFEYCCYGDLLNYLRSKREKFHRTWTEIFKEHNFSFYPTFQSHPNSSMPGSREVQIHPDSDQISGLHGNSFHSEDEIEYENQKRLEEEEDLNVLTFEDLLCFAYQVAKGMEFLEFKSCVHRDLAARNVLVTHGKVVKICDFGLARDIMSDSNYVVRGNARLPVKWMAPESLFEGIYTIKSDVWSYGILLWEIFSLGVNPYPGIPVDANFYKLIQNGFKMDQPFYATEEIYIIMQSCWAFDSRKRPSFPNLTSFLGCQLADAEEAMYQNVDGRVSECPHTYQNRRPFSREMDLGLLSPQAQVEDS
Nature of the test: Inhibition of FLT3.

Test [10] deals with Tyrosine-protein kinase JAK2 (Homo sapiens, UniProt O60674). In words: Inhibition of JAK2.
In test [11] the target is T2, Tyrosine-protein kinase receptor UFO (Homo sapiens, UniProt P30530).
T2 sequence (P30530 whole entry): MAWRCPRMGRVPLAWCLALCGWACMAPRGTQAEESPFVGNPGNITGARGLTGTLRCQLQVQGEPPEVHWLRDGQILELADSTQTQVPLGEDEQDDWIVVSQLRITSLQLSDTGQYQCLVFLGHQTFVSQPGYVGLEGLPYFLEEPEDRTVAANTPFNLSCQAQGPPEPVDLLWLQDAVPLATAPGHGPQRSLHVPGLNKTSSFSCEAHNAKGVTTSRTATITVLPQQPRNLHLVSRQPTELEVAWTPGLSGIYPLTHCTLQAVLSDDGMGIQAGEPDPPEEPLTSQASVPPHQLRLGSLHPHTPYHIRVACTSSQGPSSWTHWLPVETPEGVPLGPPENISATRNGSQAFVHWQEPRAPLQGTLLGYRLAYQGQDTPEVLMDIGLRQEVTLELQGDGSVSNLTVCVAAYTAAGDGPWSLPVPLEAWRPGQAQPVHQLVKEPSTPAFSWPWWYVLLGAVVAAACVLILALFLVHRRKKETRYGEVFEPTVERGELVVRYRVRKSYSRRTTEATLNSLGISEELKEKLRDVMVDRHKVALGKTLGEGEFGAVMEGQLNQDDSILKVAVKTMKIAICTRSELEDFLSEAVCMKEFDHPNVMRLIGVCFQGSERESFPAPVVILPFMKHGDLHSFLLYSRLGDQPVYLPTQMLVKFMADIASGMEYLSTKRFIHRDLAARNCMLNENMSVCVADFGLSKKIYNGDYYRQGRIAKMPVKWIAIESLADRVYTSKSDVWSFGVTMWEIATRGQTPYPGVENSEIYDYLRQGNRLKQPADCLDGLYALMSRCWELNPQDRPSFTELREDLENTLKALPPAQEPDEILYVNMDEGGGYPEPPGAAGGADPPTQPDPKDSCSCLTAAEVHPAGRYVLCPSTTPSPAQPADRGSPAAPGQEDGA
Nature of the test: Inhibition of Axl kinase.

For test [12], the target named is Proto-oncogene tyrosine-protein kinase Src (Homo sapiens, UniProt P12931). Nature of the test: Inhibition of cSrc.
Test [13] in a line: Inhibition of p38 kinase.
The target in test [14] is Cyclin-dependent kinase 2 (Homo sapiens, UniProt P24941). Nature of the test: Inhibition of CDK2.
A further test addresses T3, Ephrin type-B receptor 4 (Homo sapiens, UniProt P54760).
T3 sequence (P54760 whole entry): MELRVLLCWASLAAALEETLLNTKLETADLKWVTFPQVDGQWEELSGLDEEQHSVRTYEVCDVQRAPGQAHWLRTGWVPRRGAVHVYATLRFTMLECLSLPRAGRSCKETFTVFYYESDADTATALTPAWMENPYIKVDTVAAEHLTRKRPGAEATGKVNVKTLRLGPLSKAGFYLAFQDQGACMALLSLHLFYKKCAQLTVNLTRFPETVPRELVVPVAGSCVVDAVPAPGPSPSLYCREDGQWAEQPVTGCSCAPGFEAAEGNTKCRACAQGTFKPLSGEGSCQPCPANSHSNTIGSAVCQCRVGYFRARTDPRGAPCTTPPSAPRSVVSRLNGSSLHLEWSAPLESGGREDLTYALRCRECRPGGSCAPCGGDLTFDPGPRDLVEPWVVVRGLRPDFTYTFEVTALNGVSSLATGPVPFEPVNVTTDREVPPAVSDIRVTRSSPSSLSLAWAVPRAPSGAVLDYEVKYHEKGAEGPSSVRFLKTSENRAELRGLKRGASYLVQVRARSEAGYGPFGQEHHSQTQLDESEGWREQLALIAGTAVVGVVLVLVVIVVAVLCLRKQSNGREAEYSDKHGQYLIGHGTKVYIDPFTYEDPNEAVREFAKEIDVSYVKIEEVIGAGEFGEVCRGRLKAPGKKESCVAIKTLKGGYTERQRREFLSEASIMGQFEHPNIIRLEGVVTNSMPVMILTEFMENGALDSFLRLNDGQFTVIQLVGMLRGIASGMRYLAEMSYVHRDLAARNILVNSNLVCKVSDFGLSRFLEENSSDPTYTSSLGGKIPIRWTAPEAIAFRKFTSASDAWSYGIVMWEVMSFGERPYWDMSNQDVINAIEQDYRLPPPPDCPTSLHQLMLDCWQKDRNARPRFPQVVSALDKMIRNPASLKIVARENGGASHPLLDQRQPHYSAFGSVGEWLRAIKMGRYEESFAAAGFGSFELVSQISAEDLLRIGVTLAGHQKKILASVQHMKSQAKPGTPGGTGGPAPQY
In words: Inhibition of EphB4.

Test [15] addresses Mast/stem cell growth factor receptor Kit (Homo sapiens, UniProt P10721). Nature of the test: Inhibition of cKit.

Broadly, the IC50 is the concentration needed to halve the response being measured. A high value points to a need for much substance.

Chain of Insulin-like growth factor 1 receptor (P08069 31-736 limits assumed): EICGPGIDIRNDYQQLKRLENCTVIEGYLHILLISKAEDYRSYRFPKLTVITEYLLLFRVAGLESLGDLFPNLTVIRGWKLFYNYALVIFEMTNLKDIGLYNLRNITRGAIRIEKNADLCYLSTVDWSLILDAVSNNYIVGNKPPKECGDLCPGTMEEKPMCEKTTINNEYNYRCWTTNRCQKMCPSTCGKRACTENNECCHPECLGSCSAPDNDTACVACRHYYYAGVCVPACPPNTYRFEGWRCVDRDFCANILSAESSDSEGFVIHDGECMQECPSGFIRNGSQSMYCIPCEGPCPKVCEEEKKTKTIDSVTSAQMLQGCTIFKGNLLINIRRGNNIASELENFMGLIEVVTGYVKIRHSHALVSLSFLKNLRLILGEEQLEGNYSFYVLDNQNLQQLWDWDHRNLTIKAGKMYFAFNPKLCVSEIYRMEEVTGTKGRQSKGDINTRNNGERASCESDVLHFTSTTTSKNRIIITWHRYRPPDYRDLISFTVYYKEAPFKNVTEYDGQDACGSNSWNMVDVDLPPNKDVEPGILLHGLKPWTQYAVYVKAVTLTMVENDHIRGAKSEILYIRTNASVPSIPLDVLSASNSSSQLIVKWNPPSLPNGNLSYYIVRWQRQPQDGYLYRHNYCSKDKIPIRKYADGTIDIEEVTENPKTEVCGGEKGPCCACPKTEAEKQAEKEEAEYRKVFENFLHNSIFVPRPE
Chain of Insulin-like growth factor 1 receptor (P08069 741-1367 limits assumed): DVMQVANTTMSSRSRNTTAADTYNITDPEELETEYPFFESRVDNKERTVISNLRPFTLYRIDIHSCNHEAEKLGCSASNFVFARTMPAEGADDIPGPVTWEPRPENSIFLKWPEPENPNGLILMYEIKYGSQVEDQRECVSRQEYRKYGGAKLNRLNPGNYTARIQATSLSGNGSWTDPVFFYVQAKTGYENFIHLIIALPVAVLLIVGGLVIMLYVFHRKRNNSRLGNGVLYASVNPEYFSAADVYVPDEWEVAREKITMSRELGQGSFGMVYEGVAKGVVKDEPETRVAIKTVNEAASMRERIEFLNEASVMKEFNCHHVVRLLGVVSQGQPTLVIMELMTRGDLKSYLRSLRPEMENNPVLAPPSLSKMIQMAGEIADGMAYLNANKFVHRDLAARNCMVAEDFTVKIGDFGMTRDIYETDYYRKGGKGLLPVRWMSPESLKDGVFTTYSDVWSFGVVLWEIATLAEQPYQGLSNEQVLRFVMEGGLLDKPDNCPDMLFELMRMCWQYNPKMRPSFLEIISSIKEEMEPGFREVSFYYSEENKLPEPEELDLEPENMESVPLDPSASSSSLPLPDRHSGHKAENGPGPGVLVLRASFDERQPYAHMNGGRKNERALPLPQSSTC
Chain of Hepatocyte growth factor receptor (P08581 whole entry): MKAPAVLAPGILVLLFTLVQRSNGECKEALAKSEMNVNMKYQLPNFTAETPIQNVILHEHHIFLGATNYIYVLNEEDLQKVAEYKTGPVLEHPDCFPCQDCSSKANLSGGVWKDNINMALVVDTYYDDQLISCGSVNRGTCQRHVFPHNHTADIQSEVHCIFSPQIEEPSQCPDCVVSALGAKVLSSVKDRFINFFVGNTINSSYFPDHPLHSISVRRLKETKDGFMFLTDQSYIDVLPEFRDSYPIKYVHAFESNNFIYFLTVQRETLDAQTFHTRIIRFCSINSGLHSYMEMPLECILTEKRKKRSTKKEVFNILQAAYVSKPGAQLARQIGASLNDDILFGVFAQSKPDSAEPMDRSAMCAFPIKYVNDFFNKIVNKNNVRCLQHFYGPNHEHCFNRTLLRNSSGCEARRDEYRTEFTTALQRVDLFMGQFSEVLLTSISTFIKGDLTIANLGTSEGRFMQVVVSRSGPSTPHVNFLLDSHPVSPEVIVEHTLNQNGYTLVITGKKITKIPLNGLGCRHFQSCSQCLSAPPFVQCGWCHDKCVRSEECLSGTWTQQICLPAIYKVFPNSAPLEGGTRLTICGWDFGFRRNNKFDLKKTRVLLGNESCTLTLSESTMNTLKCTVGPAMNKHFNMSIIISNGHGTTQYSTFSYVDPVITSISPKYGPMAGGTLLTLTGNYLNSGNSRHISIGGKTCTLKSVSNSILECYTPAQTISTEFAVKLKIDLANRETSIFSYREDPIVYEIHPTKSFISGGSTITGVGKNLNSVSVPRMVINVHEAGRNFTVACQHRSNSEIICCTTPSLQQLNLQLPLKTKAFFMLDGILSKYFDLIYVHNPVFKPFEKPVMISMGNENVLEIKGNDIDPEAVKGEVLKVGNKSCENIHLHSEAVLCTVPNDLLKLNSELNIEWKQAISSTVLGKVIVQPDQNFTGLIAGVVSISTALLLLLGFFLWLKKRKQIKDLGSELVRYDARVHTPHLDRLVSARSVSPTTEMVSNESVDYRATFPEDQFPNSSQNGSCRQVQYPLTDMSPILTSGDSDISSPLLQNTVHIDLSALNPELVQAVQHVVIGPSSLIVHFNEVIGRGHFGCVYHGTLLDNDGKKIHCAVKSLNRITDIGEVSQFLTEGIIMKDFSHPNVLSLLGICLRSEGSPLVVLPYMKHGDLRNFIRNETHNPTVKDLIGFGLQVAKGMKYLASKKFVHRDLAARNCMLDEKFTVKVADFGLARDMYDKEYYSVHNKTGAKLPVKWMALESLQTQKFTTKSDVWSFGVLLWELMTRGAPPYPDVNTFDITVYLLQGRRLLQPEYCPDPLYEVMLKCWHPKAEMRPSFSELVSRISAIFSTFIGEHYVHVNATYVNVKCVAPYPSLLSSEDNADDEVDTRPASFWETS
Chain of Fibroblast growth factor receptor 1 (P11362 whole entry): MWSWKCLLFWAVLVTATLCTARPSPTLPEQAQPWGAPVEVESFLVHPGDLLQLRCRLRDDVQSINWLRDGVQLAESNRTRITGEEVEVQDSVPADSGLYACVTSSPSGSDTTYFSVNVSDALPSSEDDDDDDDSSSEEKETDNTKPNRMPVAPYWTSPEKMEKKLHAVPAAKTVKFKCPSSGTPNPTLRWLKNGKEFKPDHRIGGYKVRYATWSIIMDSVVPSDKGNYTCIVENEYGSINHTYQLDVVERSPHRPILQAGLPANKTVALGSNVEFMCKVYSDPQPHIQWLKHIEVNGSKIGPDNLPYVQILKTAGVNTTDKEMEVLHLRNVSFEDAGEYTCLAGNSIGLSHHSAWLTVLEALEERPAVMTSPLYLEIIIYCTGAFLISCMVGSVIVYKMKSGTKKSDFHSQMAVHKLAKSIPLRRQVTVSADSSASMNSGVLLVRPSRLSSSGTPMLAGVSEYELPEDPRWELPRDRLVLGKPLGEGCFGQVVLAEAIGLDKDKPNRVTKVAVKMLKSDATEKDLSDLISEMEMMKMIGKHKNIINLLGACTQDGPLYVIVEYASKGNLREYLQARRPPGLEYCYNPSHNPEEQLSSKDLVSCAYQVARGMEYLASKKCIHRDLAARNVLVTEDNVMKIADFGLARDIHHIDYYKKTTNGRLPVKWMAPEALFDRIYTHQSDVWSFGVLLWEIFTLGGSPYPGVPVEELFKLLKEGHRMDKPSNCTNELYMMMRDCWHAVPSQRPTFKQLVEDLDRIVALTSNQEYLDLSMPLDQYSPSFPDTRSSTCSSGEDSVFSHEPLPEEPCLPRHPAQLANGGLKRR
Chain of Mast/stem cell growth factor receptor Kit (P10721 whole entry): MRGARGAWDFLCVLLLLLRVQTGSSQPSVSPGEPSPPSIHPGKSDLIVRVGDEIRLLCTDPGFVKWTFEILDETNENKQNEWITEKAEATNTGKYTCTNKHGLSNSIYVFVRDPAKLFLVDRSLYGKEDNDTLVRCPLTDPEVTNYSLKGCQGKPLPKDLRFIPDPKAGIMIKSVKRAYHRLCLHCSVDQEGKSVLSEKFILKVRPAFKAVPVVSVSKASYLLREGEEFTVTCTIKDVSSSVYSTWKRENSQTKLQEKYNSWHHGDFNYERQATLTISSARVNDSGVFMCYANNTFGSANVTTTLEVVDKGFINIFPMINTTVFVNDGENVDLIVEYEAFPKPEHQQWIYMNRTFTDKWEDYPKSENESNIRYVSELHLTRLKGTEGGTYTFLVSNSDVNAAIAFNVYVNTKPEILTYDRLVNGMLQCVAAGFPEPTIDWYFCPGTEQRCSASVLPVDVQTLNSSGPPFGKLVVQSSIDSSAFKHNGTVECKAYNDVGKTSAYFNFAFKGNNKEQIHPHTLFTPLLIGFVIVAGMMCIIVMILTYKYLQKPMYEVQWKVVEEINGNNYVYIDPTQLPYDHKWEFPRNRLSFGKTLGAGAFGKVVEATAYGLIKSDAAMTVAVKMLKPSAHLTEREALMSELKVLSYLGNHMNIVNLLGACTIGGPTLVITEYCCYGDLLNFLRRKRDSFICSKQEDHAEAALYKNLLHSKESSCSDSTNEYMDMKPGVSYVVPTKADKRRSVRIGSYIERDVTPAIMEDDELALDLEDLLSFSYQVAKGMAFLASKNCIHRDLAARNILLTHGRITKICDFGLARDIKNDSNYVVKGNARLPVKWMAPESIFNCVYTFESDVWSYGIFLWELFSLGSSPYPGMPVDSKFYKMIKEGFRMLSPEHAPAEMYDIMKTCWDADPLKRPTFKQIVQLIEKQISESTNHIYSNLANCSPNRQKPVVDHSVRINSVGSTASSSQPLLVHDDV
Chain of RAC-alpha serine/threonine-protein kinase (P31749 whole entry): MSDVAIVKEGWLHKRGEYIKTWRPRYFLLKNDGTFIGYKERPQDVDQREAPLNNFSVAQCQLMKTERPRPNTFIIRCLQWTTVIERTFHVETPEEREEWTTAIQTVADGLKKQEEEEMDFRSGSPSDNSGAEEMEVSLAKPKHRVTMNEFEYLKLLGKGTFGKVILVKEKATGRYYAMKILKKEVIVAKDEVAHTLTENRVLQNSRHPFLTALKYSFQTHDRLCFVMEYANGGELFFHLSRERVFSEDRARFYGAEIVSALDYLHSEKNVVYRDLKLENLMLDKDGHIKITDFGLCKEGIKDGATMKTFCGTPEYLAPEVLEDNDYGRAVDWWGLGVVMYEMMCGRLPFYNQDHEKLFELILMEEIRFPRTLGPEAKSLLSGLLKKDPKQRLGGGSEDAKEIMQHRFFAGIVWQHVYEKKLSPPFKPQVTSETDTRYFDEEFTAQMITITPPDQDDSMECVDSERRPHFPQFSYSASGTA

As for `CCN(CC)CCOc1ccc(Nc2cc(NC(=O)Nc3c(Cl)cccc3Cl)ncn2)cc1`, the IC50 was 150 nM in test [1]; 960 nM in test [2]; 250 nM in test [3]; greater than 10000 nM in [4]; 300 nM against Angiopoietin-1 receptor; 570 nM in test [5]. In addition, the IC50 in test [6], in test [7], in test [8], in test [9], in [10] and in test [11] was greater than 10000 nM in each case. Further, the half-inhibitory concentration (IC50) is 66 nM in test [12]; 350 nM in test [13]; greater than 10000 nM in test [14]; 430 nM on Ephrin type-B receptor 4; 930 nM in [15].
